Measured values taken from ChEMBL document CHEMBL6074634, “Design, synthesis, and evaluation of novel oxyacanthine derivatives for anti-SARS-CoV-2 activity” (Bioorg Med Chem Lett, 2024).

Tested on: SARS-CoV-2
Assay: Antiviral activity against SARS CoV-2 infected in african green monkey Vero E6 cells assessed as inhibition of viral growth preincubated with cells for 1 hr followed by viral addition for 1 hr with subsequent compound washout and measured after 24 hrs of compound replacement by qRT-PCR analysis
Format: functional, organism-based
Details: Severe acute respiratory syndrome coronavirus 2, Vero C1008

| Structure (SMILES) | IC50 |
| --- | --- |
| COc1cc2c3cc1Oc1c(OC)c(OC)cc4c1[C@H](Cc1ccc(cc1)Oc1cc(ccc1C(=O)NC1CCCC1)C[C@H]3N(C)CC2)N(C)CC4 | 1490 nM |
| COc1cc2c3cc1Oc1c(OC)c(OC)cc4c1[C@H](Cc1ccc(cc1)Oc1cc(ccc1C1CC1)C[C@H]3N(C)CC2)N(C)CC4 | 2570 nM |
| COc1ccc(NC(=O)c2ccc3cc2Oc2ccc(cc2)C[C@H]2c4c(cc(OC)c(OC)c4Oc4cc5c(cc4OC)CCN(C)[C@@H]5C3)CCN2C)cc1 | 620 nM |
| COc1cc2c3cc1Oc1c(OC)c(OC)cc4c1[C@H](Cc1ccc(cc1)Oc1cc(ccc1C(=O)Nc1ccccc1)C[C@H]3N(C)CC2)N(C)CC4 | 2820 nM |
| COc1cc2c3cc1Oc1c(OC)c(OC)cc4c1[C@H](Cc1ccc(cc1)Oc1cc(ccc1C(=O)NC15CC6CC(CC(C6)C1)C5)C[C@H]3N(C)CC2)N(C)CC4 | 1060 nM |
| COc1cc2c3cc1Oc1c(OC)c(OC)cc4c1[C@H](Cc1ccc(cc1)Oc1cc(ccc1C(=O)O)C[C@H]3N(C)CC2)N(C)CC4 | > 5000 nM |
| COc1cc2c3cc1Oc1c(OC)c(OC)cc4c1[C@H](Cc1ccc(cc1)Oc1cc(ccc1C(=O)NC1CC1)C[C@H]3N(C)CC2)N(C)CC4 | 890 nM |
| COc1cc2c3cc1Oc1c(OC)c(OC)cc4c1[C@H](Cc1ccc(cc1)OC1C=C(Cc5[nH]c(=O)oc51)C[C@H]3N(C)CC2)N(C)CC4 (stereo not given in full) | 670 nM |
| COc1cc2c3cc1Oc1c(OC)c(OC)cc4c1[C@H](Cc1ccc(cc1)Oc1cc(ccc1C(C)=O)C[C@H]3N(C)CC2)N(C)CC4 | 1480 nM |
| COc1cc2c3cc1Oc1c(OC)c(OC)cc4c1[C@H](Cc1ccc(cc1)Oc1cc(ccc1C(N)=O)C[C@H]3N(C)CC2)N(C)CC4 | 550 nM |
| COc1cc2c3cc1Oc1c(OC)c(OC)cc4c1[C@H](Cc1ccc(cc1)Oc1cc(cc([N+](=O)[O-])c1O)C[C@H]3N(C)CC2)N(C)CC4 | > 5000 nM |
| CCCCCNC(=O)c1ccc2cc1Oc1ccc(cc1)C[C@H]1c3c(cc(OC)c(OC)c3Oc3cc4c(cc3OC)CCN(C)[C@@H]4C2)CCN1C | 2520 nM |
| COc1cc2c3cc1Oc1c(OC)c(OC)cc4c1[C@H](Cc1ccc(cc1)Oc1cc(ccc1C(=O)NCCOCCO)C[C@H]3N(C)CC2)N(C)CC4 | 2740 nM |
| COc1cc2c3cc1Oc1c(OC)c(OC)cc4c1[C@H](Cc1ccc(cc1)Oc1cc(ccc1N)C[C@H]3N(C)CC2)N(C)CC4 | > 5000 nM |
| COc1cc2c3cc1Oc1c(OC)c(OC)cc4c1[C@H](Cc1ccc(cc1)Oc1cc(ccc1NCc1ccccc1)C[C@H]3N(C)CC2)N(C)CC4 | > 5000 nM |
| COC(=O)c1ccc2cc1Oc1ccc(cc1)C[C@H]1c3c(cc(OC)c(OC)c3Oc3cc4c(cc3OC)CCN(C)[C@@H]4C2)CCN1C | 840 nM |
| COc1cc2c3cc1Oc1c(OC)c(OC)cc4c1[C@H](Cc1ccc(cc1)Oc1cc(ccc1C(=O)NC(C)C)C[C@H]3N(C)CC2)N(C)CC4 | 1020 nM |
| COc1cc2c3cc1Oc1c(OC)c(OC)cc4c1[C@H](Cc1ccc(cc1)Oc1cc(ccc1C)C[C@H]3N(C)CC2)N(C)CC4 | 2450 nM |
| CNc1ccc2cc1Oc1ccc(cc1)C[C@H]1c3c(cc(OC)c(OC)c3Oc3cc4c(cc3OC)CCN(C)[C@@H]4C2)CCN1C | > 5000 nM |
| COc1cc2c3cc1Oc1c(OC)c(OC)cc4c1[C@H](Cc1ccc(cc1)Oc1cccc(c1)C[C@H]3N(C)CC2)N(C)CC4 | 930 nM |
| COc1cc2c3cc1Oc1c(OC)c(OC)cc4c1[C@H](Cc1ccc(cc1)Oc1cc(cc([N+](=O)[O-])c1)C[C@H]3N(C)CC2)N(C)CC4 | 720 nM |
| COc1cc2c3cc1Oc1c(OC)c(OC)cc4c1[C@H](Cc1ccc(cc1)Oc1cc(ccc1O)C[C@H]3N(C)CC2)N(C)CC4 [AROMOLINE] | 14500 nM |
| C=CC(=O)Nc1ccc2cc1Oc1ccc(cc1)C[C@H]1c3c(cc(OC)c(OC)c3Oc3cc4c(cc3OC)CCN(C)[C@@H]4C2)CCN1C | 1850 nM |
| COc1cc2c3cc1Oc1c(OC)c(OC)cc4c1[C@H](Cc1ccc(cc1)Oc1cc(ccc1C(=O)Nc1ccc(C(F)(F)F)cc1)C[C@H]3N(C)CC2)N(C)CC4 | 2780 nM |
| COc1cc2c3cc1Oc1c(OC)c(OC)cc4c1[C@H](Cc1ccc(cc1)Oc1cc(ccc1C(=O)NC1CCC1)C[C@H]3N(C)CC2)N(C)CC4 | 530 nM |
| COc1cc2c3cc1Oc1c(OC)c(OC)cc4c1[C@H](Cc1ccc(cc1)Oc1cc(cc(N)c1O)C[C@H]3N(C)CC2)N(C)CC4 | > 5000 nM |
| COc1cc2c3cc1Oc1c(OC)c(OC)cc4c1[C@H](Cc1ccc(cc1)Oc1cc(ccc1C(=O)N1CCCCC1)C[C@H]3N(C)CC2)N(C)CC4 | 1600 nM |
| C=C(C)c1ccc2cc1Oc1ccc(cc1)C[C@H]1c3c(cc(OC)c(OC)c3Oc3cc4c(cc3OC)CCN(C)[C@@H]4C2)CCN1C | 1090 nM |
| CNC(=O)c1ccc2cc1Oc1ccc(cc1)C[C@H]1c3c(cc(OC)c(OC)c3Oc3cc4c(cc3OC)CCN(C)[C@@H]4C2)CCN1C | 2510 nM |
| COc1cc2c3cc1Oc1c(OC)c(OC)cc4c1[C@H](Cc1ccc(cc1)Oc1cc(ccc1C(=O)Nc1cccnc1)C[C@H]3N(C)CC2)N(C)CC4 | 940 nM |
